Test results as given in PubChem BioAssay (NCI).
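Where inhibition never reached the appropriate level, the endpoint shown equals the highest concentration tested. Otherwise, values were interpolated linearly from a five-concentration, 48-hour dose response in 96-well plates. At the TGI there is no net growth.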

What was measured:
Experiment in all cases: inhibition of tumour cell growth, NCI panel, 48 h
DU-145 prostate = test system: DU-145 prostate
HCC-2998 colon = test system: HCC-2998 colon
HCT-116 colon = test system: HCT-116 colon
HCT-15 colon = test system: HCT-15 colon
HL-60(TB) leukemia = test system: HL-60(TB) leukemia
HOP-92 NSCLC = test system: HOP-92 NSCLC
KM12 colon = test system: KM12 colon
MDA-MB-435 = test system: MDA-MB-435
NCI-H23 lung = test system: NCI-H23 lung
OVCAR-4 ovarian = test system: OVCAR-4 ovarian
OVCAR-8 ovarian = test system: OVCAR-8 ovarian
PC-3 prostate = test system: PC-3 prostate
RXF 393 renal = test system: RXF 393 renal
SF-268 CNS = test system: SF-268 CNS
SF-295 CNS = test system: SF-295 CNS
SK-MEL-5 melanoma = test system: SK-MEL-5 melanoma
SN12C renal = test system: SN12C renal
SNB-75 CNS = test system: SNB-75 CNS
U251 CNS = test system: U251 CNS
UACC-257 melanoma = test system: UACC-257 melanoma

SMILES | TGI (DU-145 prostate) [µM] | TGI (HCC-2998 colon) [µM] | TGI (HCT-116 colon) [µM] | TGI (HCT-15 colon) [µM] | TGI (HL-60(TB) leukemia) [µM] | TGI (HOP-92 NSCLC) [µM] | TGI (KM12 colon) [µM] | TGI (MDA-MB-435) [µM] | TGI (NCI-H23 lung) [µM] | TGI (OVCAR-4 ovarian) [µM] | TGI (OVCAR-8 ovarian) [µM] | TGI (PC-3 prostate) [µM] | TGI (RXF 393 renal) [µM] | TGI (SF-268 CNS) [µM] | TGI (SF-295 CNS) [µM] | TGI (SK-MEL-5 melanoma) [µM] | TGI (SN12C renal) [µM] | TGI (SNB-75 CNS) [µM] | TGI (U251 CNS) [µM] | TGI (UACC-257 melanoma) [µM]
CCOC(=O)c1c(-c2ccccc2)[nH]c2ccc(Cl)cc2c1=O | > 100 | > 100 | > 100 | > 100 | > 100 | 73.6 | > 100 | > 100 | > 100 | 44.8 | > 100 | > 100 | > 100 | > 100 | > 100 | > 100 | > 100 | > 100 | > 100 | > 100
CC(=C(C(=O)O)C(=O)O)c1cc(-c2cccs2)cc(-c2ccc(Cl)cc2)c1O | 30.6 | 38 | 29.1 | 37.5 | 46.6 | 34.3 | 24.2 | 35.1 | 32.6 | > 71.9 | 52.8 | 28.3 | 29.6 | 54.9 | 46.5 | > 52.8 | 30.5 | 37.6 | 29.3 | 33.5
O=C(CCCN1CC=C(n2c(=O)[nH]c3ccccc32)CC1)c1cccs1 | > 100 | > 100 | > 100 | > 100 | > 100 | > 100 | > 100 | > 100 | > 100 | > 100 | > 100 | > 100 | > 100 | > 100 | > 100 | > 100 | > 100 | > 100 | > 100 | > 100
C#C[C@]1(O)CC[C@H]2[C@@H]3CCC4=C/C(=N\OCCN5CCCC5)CC[C@]4(C)[C@H]3CC[C@@]21C | 41 | 34.5 | 28.7 | 35 | 8.57 | > 100 | 19.6 | 15 | 31.3 | > 62.1 | 40.7 | 32.6 | > 39.9 | 30.1 | 14.5 | 15.4 | 43.7 | 24.7 | > 49.4 | 22.9
O=C1c2cccnc2C(=O)c2c1nc1ccccc1c2-c1cncc(-c2c3c(nc4ccccc24)C(=O)c2cccnc2C3=O)c1 | 0.565 | 1.47 | 0.352 | 0.414 | 0.478 | 5.93 | 2 | 0.9 | 0.944 | 1.91 | 0.618 | 11 | 5.48 | 1.25 | 1.62 | 0.52 | 0.613 | 1.6 | 1.22 | 1.08
CCCCCNC1=CC(=O)c2ccccc2C1=O | > 100 | > 100 | > 61.7 | > 100 | > 62.6 | 59.1 | > 100 | > 100 | 58.3 | > 100 | 51.8 | > 100 | 47.3 | > 77.1 | > 70.3 | 77.8 | > 100 | 49.4 | 34 | > 100
CO[C@H](c1ccccc1)[C@H](O)[C@](O)(c1ccccc1)P(=O)(OC)OC | > 100 | > 100 | > 100 | > 100 | > 100 | > 100 | > 100 | > 100 | > 100 | > 100 | > 100 | > 100 | > 100 | > 100 | > 100 | > 100 | > 100 | > 100 | > 100 | > 100
COc1c(O)cc2c(c1O)C1O[C@H](CO)C(O)[C@H](O)[C@H]1OC2=O (stereo not given in full) | > 100 | > 100 | > 100 | > 100 | > 100 | > 100 | > 100 | > 100 | > 100 | > 100 | > 100 | > 100 | > 100 | > 100 | > 100 | > 100 | > 100 | > 100 | > 100 | > 100
CC(Oc1ccc(Cl)cc1Cl)C(=O)NN1C(=O)CSC1c1ccc(Cl)cc1 (stereo not given) | > 100 | > 100 | > 100 | > 100 | 84.7 | 66.3 | > 100 | > 100 | > 100 | > 100 | > 100 | > 100 | 83.4 | > 100 | > 100 | > 100 | 37.8 | 72.7 | > 100 | > 100
O=C(NN1C(=O)c2ccccc2C1=O)c1ccccc1Nc1ccccc1C(=O)NN1C(=O)c2ccccc2C1=O | > 100 | > 100 | > 100 | > 100 | > 100 | > 100 | > 100 | > 100 | > 100 | > 100 | > 100 | > 100 | > 100 | > 100 | > 100 | > 100 | > 100 | > 100 | > 100 | > 100
COC(=O)[C@]12CSC[C@H]1C[C@H](c1ccc(N(C)C)cc1)N2 | > 100 | > 100 | > 100 | > 100 | > 100 | > 100 | > 100 | > 100 | > 100 | > 100 | > 100 | > 100 | > 100 | > 100 | > 100 | > 100 | > 100 | > 100 | > 100 | > 100
N#CC(C#N)=C1CCCCc2ccc([N+](=O)[O-])cc21 | > 100 | > 100 | 54.8 | > 100 | > 100 | > 100 | > 100 | > 100 | > 100 | > 100 | > 100 | > 100 | > 100 | > 100 | > 100 | > 100 | > 100 | > 100 | > 100 | > 100
O=c1[nH]c2ccsc2c(=O)n1COCc1ccccc1 | > 100 | > 100 | > 100 | > 100 | > 100 | > 100 | > 100 | > 100 | > 100 | > 100 | > 100 | > 100 | > 100 | > 100 | > 100 | > 100 | > 100 | > 100 | > 100 | > 100
CC1=CCC[C@]2(C)C1=CC(=O)O[C@H]2c1ccoc1 | > 100 | > 100 | > 100 | > 100 | > 100 | > 100 | > 100 | > 100 | > 100 | > 100 | > 100 | > 100 | > 100 | > 100 | > 100 | > 100 | > 100 | > 100 | > 100 | > 100
C=CC1(c2ccc(Br)cc2)OCCCO1 | > 100 | > 100 | > 100 | > 100 | > 100 | > 100 | > 100 | > 100 | > 100 | > 100 | > 100 | > 100 | > 100 | > 100 | > 100 | > 100 | > 100 | > 100 | > 100 | > 100
COc1cc(/C=N/NC2=NCCCN2)ccc1O | > 100 | > 100 | > 100 | > 100 | > 100 | > 100 | > 100 | > 100 | > 100 | > 100 | > 100 | > 100 | > 100 | > 100 | > 100 | > 100 | > 100 | > 100 | > 100 | > 100
